Target: T1, p300 (Homo sapiens, UniProt Q09472)
T1 construct: gene EP300; hexahistidine tagged full length p300
Experiment: filter binding KAT assay with HeLa core histones; enzyme inhibition kinetics
Type: biochemical

T1 sequence (Q09472 2-2414): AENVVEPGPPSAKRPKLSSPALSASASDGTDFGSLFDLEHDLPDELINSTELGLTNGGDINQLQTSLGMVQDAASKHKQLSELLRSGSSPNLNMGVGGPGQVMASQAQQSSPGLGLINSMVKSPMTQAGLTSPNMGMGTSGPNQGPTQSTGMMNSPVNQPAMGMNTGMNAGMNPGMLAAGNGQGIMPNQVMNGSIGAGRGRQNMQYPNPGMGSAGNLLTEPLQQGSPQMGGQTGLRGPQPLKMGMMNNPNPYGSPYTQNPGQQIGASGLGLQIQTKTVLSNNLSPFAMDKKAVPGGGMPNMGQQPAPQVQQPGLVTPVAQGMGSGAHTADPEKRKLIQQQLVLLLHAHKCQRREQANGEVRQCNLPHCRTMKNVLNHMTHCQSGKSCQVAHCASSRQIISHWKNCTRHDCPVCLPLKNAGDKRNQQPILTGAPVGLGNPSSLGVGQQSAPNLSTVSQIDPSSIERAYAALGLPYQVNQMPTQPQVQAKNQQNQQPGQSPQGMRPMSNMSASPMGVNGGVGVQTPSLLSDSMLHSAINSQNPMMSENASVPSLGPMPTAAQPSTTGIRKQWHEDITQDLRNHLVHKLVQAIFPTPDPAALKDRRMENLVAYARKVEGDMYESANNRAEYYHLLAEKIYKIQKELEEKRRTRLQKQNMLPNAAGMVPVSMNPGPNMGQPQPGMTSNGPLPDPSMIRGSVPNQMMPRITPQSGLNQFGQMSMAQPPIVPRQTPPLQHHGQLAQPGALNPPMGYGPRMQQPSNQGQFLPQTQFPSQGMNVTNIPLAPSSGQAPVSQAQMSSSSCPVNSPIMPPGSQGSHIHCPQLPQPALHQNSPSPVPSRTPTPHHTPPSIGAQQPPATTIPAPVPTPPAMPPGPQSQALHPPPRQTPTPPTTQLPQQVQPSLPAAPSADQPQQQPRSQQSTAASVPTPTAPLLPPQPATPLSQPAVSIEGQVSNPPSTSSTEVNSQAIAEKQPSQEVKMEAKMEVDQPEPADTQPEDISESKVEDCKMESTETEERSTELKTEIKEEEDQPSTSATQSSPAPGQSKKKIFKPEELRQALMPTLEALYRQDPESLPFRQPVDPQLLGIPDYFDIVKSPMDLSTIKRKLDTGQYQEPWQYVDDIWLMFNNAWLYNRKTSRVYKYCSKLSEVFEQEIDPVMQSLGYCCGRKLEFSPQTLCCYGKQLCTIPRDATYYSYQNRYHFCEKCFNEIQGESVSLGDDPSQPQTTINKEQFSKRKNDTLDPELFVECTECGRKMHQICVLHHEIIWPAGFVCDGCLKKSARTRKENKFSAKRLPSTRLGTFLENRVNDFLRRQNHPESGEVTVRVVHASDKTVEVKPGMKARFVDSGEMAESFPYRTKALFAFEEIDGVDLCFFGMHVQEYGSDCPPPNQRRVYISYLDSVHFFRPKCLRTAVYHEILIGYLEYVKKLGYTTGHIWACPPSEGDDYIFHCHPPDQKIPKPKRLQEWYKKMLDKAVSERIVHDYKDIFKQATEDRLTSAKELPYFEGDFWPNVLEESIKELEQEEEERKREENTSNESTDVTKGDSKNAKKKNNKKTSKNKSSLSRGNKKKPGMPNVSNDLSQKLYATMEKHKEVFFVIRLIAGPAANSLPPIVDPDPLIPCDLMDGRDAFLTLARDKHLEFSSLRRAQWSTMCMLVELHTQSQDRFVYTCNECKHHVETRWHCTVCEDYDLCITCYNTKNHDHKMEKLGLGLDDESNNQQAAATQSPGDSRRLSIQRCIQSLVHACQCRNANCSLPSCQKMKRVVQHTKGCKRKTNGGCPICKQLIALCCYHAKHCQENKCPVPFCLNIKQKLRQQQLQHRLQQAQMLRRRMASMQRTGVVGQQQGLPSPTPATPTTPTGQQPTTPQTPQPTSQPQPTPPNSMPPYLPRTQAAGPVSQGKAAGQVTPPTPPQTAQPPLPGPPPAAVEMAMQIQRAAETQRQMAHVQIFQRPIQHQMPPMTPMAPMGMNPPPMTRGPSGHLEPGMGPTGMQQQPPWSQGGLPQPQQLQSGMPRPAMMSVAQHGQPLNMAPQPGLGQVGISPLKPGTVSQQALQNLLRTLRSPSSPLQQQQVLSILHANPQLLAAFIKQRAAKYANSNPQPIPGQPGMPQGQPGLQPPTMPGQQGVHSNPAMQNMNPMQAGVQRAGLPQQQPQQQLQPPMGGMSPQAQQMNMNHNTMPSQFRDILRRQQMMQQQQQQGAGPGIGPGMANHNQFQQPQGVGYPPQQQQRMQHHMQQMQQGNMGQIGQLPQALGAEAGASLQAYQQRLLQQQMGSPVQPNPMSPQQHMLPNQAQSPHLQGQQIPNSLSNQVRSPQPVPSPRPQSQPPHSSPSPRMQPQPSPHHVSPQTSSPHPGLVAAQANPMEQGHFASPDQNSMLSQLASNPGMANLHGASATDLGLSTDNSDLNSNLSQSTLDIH

IC50: 7 µM
Compound: O=c1cc(-c2ccc(O)c(O)c2)oc2cc(O)cc(O)c12 [luteolin]
